The term pKi denotes the negative decadic logarithm of the Ki, by convention in mol/L. A low value points to a large Ki. A word on the pEC50: it is the EC50 on a negative log10 scale, so that one unit is a factor of ten. A higher pEC50 goes with a small EC50. Usually solubility stands for the concentration that dissolves in the medium under given conditions. By half-life is commonly meant the time needed for the level to fall by half in the phase considered. A low value points to fast loss. The Tmax is the time from dosing to the highest level.

SMILES strings stand for the structures. pEC50, pKi: −log10 of the molar value. In brackets after ≈: the same amount, converted by molar mass.

In one data set the target is T1, Adenosine receptor A2b (Homo sapiens, UniProt P29275).
T1 sequence (P29275 whole entry): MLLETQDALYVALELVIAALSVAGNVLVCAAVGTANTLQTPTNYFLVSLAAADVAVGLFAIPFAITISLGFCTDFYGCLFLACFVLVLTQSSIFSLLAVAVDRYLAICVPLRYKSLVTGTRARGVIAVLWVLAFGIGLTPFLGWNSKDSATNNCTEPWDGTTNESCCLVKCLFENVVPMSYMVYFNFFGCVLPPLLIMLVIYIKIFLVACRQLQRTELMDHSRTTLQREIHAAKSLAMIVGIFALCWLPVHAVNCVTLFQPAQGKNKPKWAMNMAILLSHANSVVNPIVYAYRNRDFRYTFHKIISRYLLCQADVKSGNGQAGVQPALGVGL
Description: Binding affinity to adenosine A2B receptor.

The target in another data set is T2, Adenosine receptor A3 (Homo sapiens, UniProt P0DMS8).
T2 sequence (P0DMS8 whole entry): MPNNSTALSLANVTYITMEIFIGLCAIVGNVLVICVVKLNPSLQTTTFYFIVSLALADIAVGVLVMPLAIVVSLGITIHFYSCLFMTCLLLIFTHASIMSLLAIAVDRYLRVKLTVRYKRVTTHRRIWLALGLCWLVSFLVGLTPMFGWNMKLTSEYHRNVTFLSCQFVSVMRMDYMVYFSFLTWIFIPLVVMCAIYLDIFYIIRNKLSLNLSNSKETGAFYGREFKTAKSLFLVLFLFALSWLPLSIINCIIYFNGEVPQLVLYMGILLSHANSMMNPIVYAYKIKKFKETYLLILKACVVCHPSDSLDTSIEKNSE
Description: Binding affinity to adenosine A3 receptor.

Data set [1] addresses T3, Adenosine receptor A2a (Homo sapiens, UniProt P29274).
Description: Displacement of [3H]CGS21680 from human adenosine A2A receptor
The next data set addresses T4, Adenosine receptor A1 (Homo sapiens, UniProt P30542).
T4 sequence (P30542 whole entry): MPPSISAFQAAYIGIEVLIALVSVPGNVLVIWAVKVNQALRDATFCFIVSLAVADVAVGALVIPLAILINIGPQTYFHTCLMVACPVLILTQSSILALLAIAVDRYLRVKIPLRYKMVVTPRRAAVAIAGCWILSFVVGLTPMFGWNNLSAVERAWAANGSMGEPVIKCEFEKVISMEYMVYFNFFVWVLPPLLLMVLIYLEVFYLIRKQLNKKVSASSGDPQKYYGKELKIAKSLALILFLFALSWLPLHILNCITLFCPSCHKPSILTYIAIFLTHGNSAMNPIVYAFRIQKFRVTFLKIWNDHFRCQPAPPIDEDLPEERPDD

For data set [2], the target named is T3, Adenosine receptor A2a. The source holds these as a separate data set.
Description: Agonist activity against human adenosine A2A receptor assessed as calcium mobilization by FLIPR assay
In a further data set the test system is Mus musculus. Description: Reversal of haloperidol-induced locomotor movement deficit in po dosed mouse assessed as minimum effective dose administered 15 mins before testing. The conditions noted are these: read-out: MED.
Data set [3] is filed under the species Homo sapiens. In words: Selectivity for human adenosine A2A receptor over human adenosine A2B receptor.
The species named for data set [4] is Homo sapiens. In words: Selectivity for human adenosine A2A receptor over human adenosine A3 receptor.
Data set [5] in a line: Aqueous solubility of the compound. The class given is physicochemical.
Data set [6] can be described thus: Inhibition of Cytochrome P450. It is filed as ADME.
Data set [7] is described as follows: Half life in po dosed Sprague-Dawley rat plasma. The class given is ADME, organism-based.
In a further data set the test system is Brain. In words: Drug uptake in Sprague-Dawley rat brain at 2 mg/kg, iv. The class given is ADME, organism-based. The conditions noted are these: in vivo. Set-up: dose 2 mg/kg, route intravenous.
The nature of data set [8]: Half life in po dosed Sprague-Dawley rat brain. The class given is ADME, organism-based.
Data set [9] is described as follows: Tmax in Sprague-Dawley rat plasma. The class given is ADME, organism-based.

T3 sequence (P29274 whole entry): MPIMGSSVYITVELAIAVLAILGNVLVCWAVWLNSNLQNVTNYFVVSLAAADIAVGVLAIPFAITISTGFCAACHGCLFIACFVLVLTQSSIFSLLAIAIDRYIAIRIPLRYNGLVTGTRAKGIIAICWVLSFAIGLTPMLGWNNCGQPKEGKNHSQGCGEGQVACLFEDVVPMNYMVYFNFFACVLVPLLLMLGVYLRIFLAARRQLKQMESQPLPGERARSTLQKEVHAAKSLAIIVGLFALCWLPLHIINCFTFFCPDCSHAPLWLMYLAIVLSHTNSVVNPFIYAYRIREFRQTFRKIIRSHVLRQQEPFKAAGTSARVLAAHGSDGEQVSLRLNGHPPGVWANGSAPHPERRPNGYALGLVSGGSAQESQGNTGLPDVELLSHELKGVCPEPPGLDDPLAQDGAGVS
Description for Adenosine receptor A1: Displacement of [3H]CGS21680 from human adenosine A1 receptor

Regarding `Nc1nc(C(=O)NCc2ccccc2)cc(-c2ccco2)n1`, the negative logarithm of the Ki (pKi) at Adenosine receptor A2b was 6.07; at Adenosine receptor A3, 6.07; on Adenosine receptor A2a [1], 8.12; at Adenosine receptor A1 it was 7.24. On Adenosine receptor A2a [2], this molecule gave a negative logarithm of the EC50 (pEC50) not above 5.00.
`CCn1c(=O)c2c(nc(/C=C/c3ccc(OC)c(OC)c3)n2C)n(CC)c1=O` [ISTRADEFYLLINE]: the minimal effective dose in the data set with Mus musculus worked out at 0.3 mg/kg.
For `COc1cccc(CNC(=O)c2cc(-c3ccco3)nc(N)n2)c1`, the pKi is 6.92 on Adenosine receptor A2b, 5.96 at Adenosine receptor A3, 8.21 on Adenosine receptor A2a [1] and 7.33 on Adenosine receptor A1. The molecule further gave a negative logarithm of the EC50 (pEC50) on Adenosine receptor A2a [2] not above 5.00.
As for `COCc1cccc(CNC(=O)c2cc(-c3ccco3)nc(N)n2)n1`, the pKi at Adenosine receptor A2b was 6.34; at Adenosine receptor A3, 5.76; on Adenosine receptor A2a [1], 8.77; at Adenosine receptor A1, 7.38. Moreover, the Ratio Ki in the data set filed under Homo sapiens [3] and in the data set filed under Homo sapiens [4] was less than 1000 each time. This molecule also displayed a solubility in data set [5] of 450 µM (≈ 153 µg/mL). The Activity entry in data set [6] is recorded as “Not Active”. Besides, the half-life in data set [7] and in data set [8] was 1 h throughout. Further, the Drug uptake in the data set with Brain is reported as 85%. In addition, the Tmax in data set [9] is 0.25 h. This molecule gave a negative logarithm of the EC50 (pEC50) at Adenosine receptor A2a [2] not above 5.00. Besides, the minimal effective dose in the data set on Mus musculus was 0.1 mg/kg.
On to `Nc1cccc(CNC(=O)c2cc(-c3ccco3)nc(N)n2)n1`, for which the pKi was 6.35 at Adenosine receptor A2b, 5.83 at Adenosine receptor A3, 8.15 on Adenosine receptor A2a [1] and 6.88 at Adenosine receptor A1. For the same molecule, the negative logarithm of the EC50 (pEC50) at Adenosine receptor A2a [2] is not above 5.00. In the data set on Mus musculus, the minimal effective dose was determined as 1 mg/kg.
Regarding `Nc1nc(C(=O)NCc2ccncc2)cc(-c2ccco2)n1`, the pKi at Adenosine receptor A2a [1] is 6.41; at Adenosine receptor A1, 5.87.
On to `Cc1ccc(CNC(=O)c2cc(-c3ccco3)nc(N)n2)cc1`, for which the pKi at Adenosine receptor A2b is 5.91; at Adenosine receptor A3, 5.73; at Adenosine receptor A2a [1], 8.02; on Adenosine receptor A1 it was 6.99. Moreover, the pEC50 at Adenosine receptor A2a [2] was not above 5.00.
As to `Nc1nc(C(=O)NCc2ccc(Cl)cc2)cc(-c2ccco2)n1`, the values for the negative-log Ki (pKi) on Adenosine receptor A2a [1] and on Adenosine receptor A1 were 7.76 and 7.10, respectively.
The like results for `COc1ccccc1C(=O)Nc1nc(N)nc(-c2ccco2)c1[N+](=O)[O-]` were, in that order, 6.77 and 6.11.
Take `Nc1nc(C(=O)NCc2ccco2)cc(-c2ccco2)n1`: the pKi was 7.85 on Adenosine receptor A2a [1] and 6.67 on Adenosine receptor A1.
Regarding `Nc1nc(C(=O)NCc2cccc(CO)n2)cc(-c2ccco2)n1`, the pKi is 8.03 at Adenosine receptor A2a [1] and 6.59 at Adenosine receptor A1. For the same molecule, the minimal effective dose in the data set with Mus musculus came to 30 mg/kg.
As to `Nc1nc(NC(=O)c2ccccc2F)c([N+](=O)[O-])c(-c2ccco2)n1`, the pKi is 7.64 at Adenosine receptor A2a [1] and 6.51 at Adenosine receptor A1.
The like results for `COc1ccccc1CC(=O)Nc1nc(N)nc(-c2ccco2)c1[N+](=O)[O-]` were, in that order, 8.00 and 6.05.
Take `COc1ccccc1CNC(=O)c1cc(-c2ccco2)nc(N)n1`: the pKi was 6.81 on Adenosine receptor A2b, 6.40 on Adenosine receptor A3, 8.46 at Adenosine receptor A2a [1] and 7.46 on Adenosine receptor A1. For the same molecule, the pEC50 on Adenosine receptor A2a [2] is not above 5.00. The minimal effective dose in the data set with Mus musculus stood at 20 mg/kg.
Consider `Nc1nc(NC(=O)c2cccnc2)c([N+](=O)[O-])c(-c2ccco2)n1`, for which the results for the pKi on Adenosine receptor A2a [1] and on Adenosine receptor A1 were 6.66 and 5.45, respectively.
Consider `Nc1nc(C(=O)NCc2cccc(Cl)c2)cc(-c2ccco2)n1`, for which the pKi on Adenosine receptor A2b is 6.74; at Adenosine receptor A3 it was 6.29; on Adenosine receptor A2a [1], 8.43; at Adenosine receptor A1, 7.91. The molecule further gave a pEC50 at Adenosine receptor A2a [2] not above 5.00.
`Nc1nc(C(=O)NCc2ccccc2Cl)cc(-c2ccco2)n1`: the negative logarithm of the Ki (pKi) at Adenosine receptor A2b was 6.86; at Adenosine receptor A3 it was 6.38; on Adenosine receptor A2a [1], 8.59; at Adenosine receptor A1, 7.14. This molecule also had a pEC50 at Adenosine receptor A2a [2] not above 5.00. Also, in the data set on Mus musculus, the minimal effective dose is 30 mg/kg.
`Cc1ccccc1CNC(=O)c1cc(-c2ccco2)nc(N)n1`: the pKi was 6.04 on Adenosine receptor A2b, 6.23 at Adenosine receptor A3, 8.66 at Adenosine receptor A2a [1] and 7.14 on Adenosine receptor A1. The molecule also gave a pEC50 on Adenosine receptor A2a [2] not above 5.00. Also, the minimal effective dose with Mus musculus came out at 30 mg/kg.
Consider `Nc1nc(C(=O)NCc2cccc(F)c2)cc(-c2ccco2)n1`, for which the negative-log Ki (pKi) is 6.03 on Adenosine receptor A2b, 5.97 at Adenosine receptor A3, 8.32 at Adenosine receptor A2a [1] and 7.41 on Adenosine receptor A1. Moreover, at Adenosine receptor A2a [2], the pEC50 is not above 5.00.
`Nc1nc(C(=O)NCc2ccccc2F)cc(-c2ccco2)n1`: the pKi at Adenosine receptor A2b was 7.17; on Adenosine receptor A3, 6.47; at Adenosine receptor A2a [1] it was 8.46; at Adenosine receptor A1, 7.27. In addition, the pEC50 on Adenosine receptor A2a [2] is not above 5.00. In addition, the minimal effective dose in the data set on Mus musculus turned out to be 30 mg/kg.
As to `Nc1nc(C(=O)NCc2ccc(F)cc2)cc(-c2ccco2)n1`, the pKi at Adenosine receptor A2a [1] was 7.70; on Adenosine receptor A1, 6.85.
Turning to `Nc1nc(NC(=O)c2ccncc2)c([N+](=O)[O-])c(-c2ccco2)n1`, the pKi is 6.82 on Adenosine receptor A2a [1] and 5.70 at Adenosine receptor A1.
Consider `Nc1nc(NC(=O)c2ccccc2OC(F)(F)F)c([N+](=O)[O-])c(-c2ccco2)n1`, for which the negative logarithm of the Ki (pKi) on Adenosine receptor A2a [1] is 7.80; on Adenosine receptor A1, 6.53.
In the same order, the values of `Nc1nc(NC(=O)c2ccccc2)c([N+](=O)[O-])c(-c2ccco2)n1` are 6.51 and 5.69.
On to `Nc1nc(C(=O)NCc2ccccn2)cc(-c2ccco2)n1`, for which the negative logarithm of the Ki (pKi) was 6.12 at Adenosine receptor A2b and 5.86 at Adenosine receptor A3. The minimal effective dose in the data set with Mus musculus turned out to be 3 mg/kg.
As to `Cc1cccc(CNC(=O)c2cc(-c3ccco3)nc(N)n2)c1`, the pKi on Adenosine receptor A2b is 6.40; at Adenosine receptor A3, 5.82; at Adenosine receptor A2a [1] it was 8.59; on Adenosine receptor A1, 7.42. The Ratio Ki in the data set filed under Homo sapiens [3] and in the data set listed under Homo sapiens [4] was less than 1000 throughout. The molecule also showed a pEC50 at Adenosine receptor A2a [2] not above 5.00. Besides, the minimal effective dose in the data set with Mus musculus amounted to 3 mg/kg.
As for `COc1ccc(CNC(=O)c2cc(-c3ccco3)nc(N)n2)cc1`, the negative-log Ki (pKi) at Adenosine receptor A2a [1] was 7.10; on Adenosine receptor A1, 6.80.
Take `Nc1nc(C(=O)NCc2cccnc2)cc(-c2ccco2)n1`: the negative logarithm of the Ki (pKi) at Adenosine receptor A2b is 5.23; on Adenosine receptor A3 it was 5.19; on Adenosine receptor A2a [1], 8.03; on Adenosine receptor A1 it was 6.91. The Ratio Ki in the data set listed under Homo sapiens [3] and in the data set listed under Homo sapiens [4] was less than 1000 each time. Moreover, the negative-log EC50 (pEC50) at Adenosine receptor A2a [2] is not above 5.00.
